What was measured:
[1] = body weight loss in tumour-bearing mice; assay type: in vivo; conditions: for body weight loss at the end of the study: MDA-MB-231 model
MDA-MB-231 tumours = assay: MDA-MB-231 breast xenograft model; assay type: in vivo, nude mice
Method: (§1) In the orthotopic Hep3b2.1-7 human liver cancer model, treatment of mice (n=10) began 14 days after inoculation of 2.5 × 10^6 cells. […] To initiate tumour xenografts, MDA-MB-231, PC3, Cal27 and HepG2 cells were injected s.c. into nude mice (n=8) at 4, 5, 2 and 2 × 10^7 cells ml^−1, respectively. […] In the B16F0 lung metastasis model, 2 × 10^5 cells were injected via the tail vein of C57Bl6 mice (n=8). […] Surface lung macrometastases were counted for each group (n=9) upon study termination. In the intrasplenic HT-29 xenograft model, 1 × 10^6 cells in 100 μl were injected into the spleen. […] Solid tumours were measured in two dimensions (length and width) and the tumour volume (cm^3) was calculated using the equation: V=length × width^2 × π/6. The anti-tumour activity was expressed as percent tumour growth inhibition (%TGI). Further details are available in Supplementary Methods. […]
(§2) antibody. […]
(§3) staining. For quantification, three independent visual fields (20x magnification) were chosen and positive stained spots or vessels with identifiable lumen were counted.
(§4) Angiogenesis inhibition and induction were calculated using the equations: […]
(§5) regimen both before and after tumour cell inoculation (days -6, -3, 0, +3, +6) or only after tumour cell inoculation (days 0, +3, +6). B16 cell (2x105) were inoculated via tail vein injections and mice were culled and assessed for lung metastases on day 12. […]

Cal27 tumours = assay: Cal27 head and neck xenograft model; assay type: in vivo, nude mice; conditions: 20 mg kg^−1 once-weekly s.c.
Method: as §1, §2, §3, §4, §5

[2] = plasma pharmacokinetics of PG545 (LC-MS/MS) in LL/2 tumour-bearing mice; assay type: in vivo; conditions: for AUC0−t / Cmax / Tmax / t½: plasma
Method: (Applied Biosystems) preceded by a Spark Symbiosis Direct On-line Solid Phase Extraction system. Briefly, using a deep-well 96-well plate, 100 µL plasma was mixed with 10 µL standard solution (or water for unknowns) plus 10 µL internal standard solution (PG562 at 100 µg/mL (deionised water for double blank)).This was then mixed for at least 1 min (Ratek Platform Shaker) and incubated at room temperature for 20 mins prior to addition of 25 µL SDS solution (10 mg SDS in 1 mL deionised water) + 75 µL CHAPS solution (50 mg CHAPS in 1 mL deionised water) and 50 µL Proteinase K solution (10 mg Proteinase K in 1 mL 5 mM CaCl2). Following a mixing step this was incubated at 37°C for 2.5 hours prior to addition of 250 µL deionised water and placed into the Spark Symbiosis system.
The Tmax and Cmax on each sampling day were determined for each dose level by visual inspection of the mean data. The AUC0-t was calculated using the trapezoidal method and the plasma concentration t½ was estimated based on linear regression of the natural log of the plasma concentration that constituted the terminal phase of the concentration-time

heparanase = target: heparanase; design: method as in Dredge et al, 2010; conditions: ref Dredge et al, 2010; read-out: Ki (heparanase inhibitor); cited from earlier work
[3] = tested on: angiogenesis (endothelial cells, rat aortic ring); design: method as in Dredge et al, 2010; conditions: endothelial cell assays in vitro and ex vivo rat aortic ring assay; ref Dredge et al, 2010; cited from earlier work

**Q.** Which “body weight loss nadir” value ([1]; B16 model) does the source give for CC(C)CCC[C@@H](C)[C@H]1CCC2C3CCC4C[C@@H](O[C@@H]5O[C@H](COS(=O)(=O)[O-])[C@@H](O[C@H]6O[C@H](COS(=O)(=O)[O-])[C@@H](O[C@H]7O[C@H](COS(=O)(=O)[O-])[C@@H](O[C@H]8O[C@H](COS(=O)(=O)[O-])[C@@H](OS(=O)(=O)[O-])[C@H](OS(=O)(=O)[O-])[C@H]8OS(=O)(=O)[O-])[C@H](OS(=O)(=O)[O-])[C@H]7OS(=O)(=O)[O-])[C@H](OS(=O)(=O)[O-])[C@H]6OS(=O)(=O)[O-])[C@H](OS(=O)(=O)[O-])[C@H]5OS(=O)(=O)[O-])CC[C@]4(C)C3CC[C@@]21C.[Na+].[Na+].[Na+].[Na+].[Na+].[Na+].[Na+].[Na+].[Na+].[Na+].[Na+].[Na+].[Na+] (some centres unmarked) [PG545] here?
**A.** 8%

**Q.** And the “body weight loss nadir” value ([1]; HT-29 model)?
**A.** 12%

**Q.** And the body weight loss ([1]; Hep3b2.1-7 model, 20 mg kg^−1 followed by twice-weekly 10 mg kg^−1)?
**A.** 4%

**Q.** And the body weight loss ([1]; Hep3b2.1-7 model, 20 mg kg^−1 twice-weekly)?
**A.** 9%

**Q.** And the “body weight nadir (loss)” value ([1]; LL/2 model)?
**A.** 5%

**Q.** And the “body weight loss at the end of the study” value ([1]; 20 mg kg^−1 once-weekly)?
**A.** 4%

**Q.** And the “body weight loss at the end of the study” value ([1]; 20 mg kg^−1 twice-weekly)?
**A.** 6%

**Q.** What about the “body weight loss at the end of the study” value ([1]; 30 mg kg^−1 once-weekly) of the same compound?
**A.** 11%

**Q.** What about the “body weight loss at the end of the study” value ([1]; 30 mg kg^−1 twice-weekly) of the same compound?
**A.** 10%

**Q.** What about the body weight loss ([1]; PC3 model, 20 mg kg^−1 once-weekly) of the same compound?
**A.** 6%

**Q.** And the body weight loss ([1]; PC3 model, 20 mg kg^−1 twice-weekly)?
**A.** 16%

**Q.** And the TGI (MDA-MB-231 tumours; 30 mg kg^−1 once-weekly s.c.)?
**A.** 69%

**Q.** And the TGI (MDA-MB-231 tumours; 30 mg kg^−1 twice-weekly s.c.)?
**A.** 59%

**Q.** And the TGI (Cal27 tumours)?
**A.** 57%

**Q.** And the “start of efficacious plasma concentration range” value ([2]; LL/2 model)?
**A.** ~20 µg/mL

**Q.** And the “AUC0−t” value ([2]; week 1, 20 mg kg^−1)?
**A.** 687 µg·h/mL

**Q.** What about the Cmax ([2]; week 1, 20 mg kg^−1) of the same compound?
**A.** 23 µg/mL

**Q.** And the Tmax ([2]; week 1, 20 mg kg^−1)?
**A.** 5 h

**Q.** And the t½ ([2]; week 1, 20 mg kg^−1)?
**A.** 38 h

**Q.** What about the “AUC0−t” value ([2]; week 1, 40 mg kg^−1) of the same compound?
**A.** 1713 µg·h/mL

**Q.** What about the Cmax ([2]; week 1, 40 mg kg^−1) of the same compound?
**A.** 55 µg/mL

**Q.** And the Tmax ([2]; week 1, 40 mg kg^−1)?
**A.** 3 h

**Q.** And the t½ ([2]; week 1, 40 mg kg^−1)?
**A.** 32 h

**Q.** And the “AUC0−t” value ([2]; week 1, 60 mg kg^−1)?
**A.** 2666 µg·h/mL

**Q.** And the Cmax ([2]; week 1, 60 mg kg^−1)?
**A.** 79 µg/mL

**Q.** What about the Tmax ([2]; week 1, 60 mg kg^−1) of the same compound?
**A.** 5 h

**Q.** And the t½ ([2]; week 1, 60 mg kg^−1)?
**A.** 39 h

**Q.** What about the “AUC0−t” value ([2]; week 2, 20 mg kg^−1) of the same compound?
**A.** 663 µg·h/mL

**Q.** What about the Cmax ([2]; week 2, 20 mg kg^−1) of the same compound?
**A.** 27 µg/mL

**Q.** What about the Tmax ([2]; week 2, 20 mg kg^−1) of the same compound?
**A.** 4 h

**Q.** What about the t½ ([2]; week 2, 20 mg kg^−1) of the same compound?
**A.** 31 h

**Q.** And the “AUC0−t” value ([2]; week 2, 40 mg kg^−1)?
**A.** 1781 µg·h/mL

**Q.** What about the Cmax ([2]; week 2, 40 mg kg^−1) of the same compound?
**A.** 71 µg/mL

**Q.** And the Tmax ([2]; week 2, 40 mg kg^−1)?
**A.** 4 h

**Q.** What about the t½ ([2]; week 2, 40 mg kg^−1) of the same compound?
**A.** 28 h

**Q.** And the “AUC0−t” value ([2]; week 2, 60 mg kg^−1)?
**A.** 3056 µg·h/mL

**Q.** What about the Cmax ([2]; week 2, 60 mg kg^−1) of the same compound?
**A.** 94 µg/mL

**Q.** What about the Tmax ([2]; week 2, 60 mg kg^−1) of the same compound?
**A.** 4 h

**Q.** What about the t½ ([2]; week 2, 60 mg kg^−1) of the same compound?
**A.** 35 h

**Q.** And the Ki (heparanase)?
**A.** 6 nM

**Q.** What about the angiogenesis inhibitor potency [3] of the same compound?
**A.** ≤ 1000 nM

From publication PMC3049593 (British Journal of Cancer, 2011)
